# Data reported in US11708549B2, “Bacterial, fungal, and yeast growth inhibitor containing allulose” (CJ CHEILJEDANG CORPORATION, priority 2016, dated 2023).
# Assays:
# [1] = tested on: Lactobacillus casei and Lactococcus lactis subsp. lactis, as bacteria; assay: Increase in cell number of bacteria depending on saccharides; format: cell-based; details: bacteria in modified MRS medium, FIGS. 1 and 2
# From the text: (§1) Specifically, each of the microorganisms (bacteria, fungi, and yeasts) obtained from Korean Culture Center of Microorganisms (KCCM) was subcultured three or four times in a culture medium (Table 1) by a typical method to enhance activity. Then, the cultured microorganism was inoculated into a culture medium (Table 1), followed by inducing over-cultivation to a concentration of 10^5 CFU/mL or more, thereby obtaining a strain mother liquor (Table 1).
# (§2) In order to compare degrees of inhibition of the growth of microorganisms depending upon the kind of purely added saccharides without a bias due to alcohol and other additives contained in a fermented alcoholic beverage, only the kind of saccharides added to a culture medium for each of the microorganisms was varied and investigated.
# (§3) Specifically, as saccharides of a culture medium suited to each strain, water-containing crystalline glucose (purity 98 wt % or more, CJ Cheiljedang), sucrose (purity 98 wt % or more, CJ Cheiljedang), and crystalline allulose (purity: 98 wt % or more, CJ Cheiljedang) were added to each of the culture medium, thereby preparing a modified culture medium (Tables 2 to 4). […]
# (§4) Thereafter, the measured number of cell colonies was multiplied by a dilution factor, thereby calculating a value of colony forming unit (CFU) per mL of sample.
# [2] = tested on: Saccharomyces cerevisiae and Saccharomyces pastorianus, as yeasts; assay: Increase in cell number of yeasts depending on saccharides; format: cell-based; details: yeasts in modified YMB medium, FIGS. 8 and 9
# From the text: as §1, §2, §3, §4
smiles,measurement,setting,value
O=C(CO)C(O)C(O)C(O)CO (centres unmarked) [allulose],strain growth (in words),[1],substantially no strain growth was observed
same,strain growth (in words),[2],substantially no strain growth was observed
